Measurements taken from paper PMC7730235, “Discovery of a Novel Class of Covalent Dual Inhibitors Targeting the Protein Kinases BMX and BTK” (International Journal of Molecular Sciences, 2020).

Columns and labels:
[1] = test system: glutathione (GSH); experiment: Glutathione reactivity / stability against GSH; type: physicochemical; conditions: glutathione (GSH) in PBS buffer, pH 7.4, 5 mM GSH, read-out: half-life (t1/2) against glutathione (converted)
Experimental: A total of 5 µL of a 10 mM compound stock solution in DMSO were added to 5 µL of a 4 mM Indoprofen solution in PBS as internal standard. The mixture was diluted with PBS buffer to a total volume of 1 mL of component A. Additionally, a freshly prepared solution of 10 mM GSH in PBS buffer was used as component B. A total of 250 µL of each component was mixed and immediately subjected to HPLC analysis for t^0 measurement. The probes were stored at 40 °C in between the respective injections. t1/2 was determined by plotting natural logarithm of AUC/AUC0 against time.

[2] = test system: kinases harboring an αD-1 cysteine; experiment: Profiling at 200 nM against kinases with an αD-1 cysteine; type: biochemical; conditions: 200 nM compound
Experimental: If not mentioned differently, in vitro profiling of compounds was performed at Reaction Biology Corporation using the HotSpot™ assay platform.

[3] = biological target: T1, JAK3 (Homo sapiens, UniProt P52333); experiment: JAK3 ELISA assay; type: biochemical; conditions: Determined in a JAK3 ELISA assay
T1 construct: purchased Reaction Biology Corporation
T1 sequence (P52333 1-1124): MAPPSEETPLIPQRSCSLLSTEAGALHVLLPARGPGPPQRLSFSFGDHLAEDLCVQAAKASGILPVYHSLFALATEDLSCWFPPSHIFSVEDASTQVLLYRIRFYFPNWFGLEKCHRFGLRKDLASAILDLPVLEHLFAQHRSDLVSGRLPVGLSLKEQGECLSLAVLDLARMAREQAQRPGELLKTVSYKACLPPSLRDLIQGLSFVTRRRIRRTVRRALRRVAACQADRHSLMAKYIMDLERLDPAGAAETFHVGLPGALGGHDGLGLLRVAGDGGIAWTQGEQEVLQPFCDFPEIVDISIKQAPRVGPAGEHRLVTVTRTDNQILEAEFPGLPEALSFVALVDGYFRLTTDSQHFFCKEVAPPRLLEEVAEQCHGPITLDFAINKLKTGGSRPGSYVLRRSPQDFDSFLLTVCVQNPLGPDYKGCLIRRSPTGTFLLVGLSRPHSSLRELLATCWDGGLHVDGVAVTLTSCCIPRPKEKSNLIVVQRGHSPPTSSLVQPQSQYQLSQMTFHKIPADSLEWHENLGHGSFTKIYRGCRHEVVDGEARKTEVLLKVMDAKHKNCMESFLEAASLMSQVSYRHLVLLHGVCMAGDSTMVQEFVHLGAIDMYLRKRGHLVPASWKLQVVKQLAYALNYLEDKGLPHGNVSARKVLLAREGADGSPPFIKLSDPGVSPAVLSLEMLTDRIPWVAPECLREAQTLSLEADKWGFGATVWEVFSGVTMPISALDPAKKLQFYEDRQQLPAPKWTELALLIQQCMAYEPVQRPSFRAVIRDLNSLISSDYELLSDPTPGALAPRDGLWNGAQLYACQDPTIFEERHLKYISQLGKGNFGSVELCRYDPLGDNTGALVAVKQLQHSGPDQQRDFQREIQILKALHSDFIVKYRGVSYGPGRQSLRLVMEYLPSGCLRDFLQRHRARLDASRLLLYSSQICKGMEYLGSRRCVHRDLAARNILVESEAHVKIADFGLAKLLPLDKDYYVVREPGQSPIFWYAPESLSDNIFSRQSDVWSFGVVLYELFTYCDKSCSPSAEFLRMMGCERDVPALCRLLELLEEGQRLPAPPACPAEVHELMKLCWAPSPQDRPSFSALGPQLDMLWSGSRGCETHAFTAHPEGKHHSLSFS

Row | half-life at 25 µM [1] | IC50 [3] | SMILES | activity at 200 nM on kinases harboring an αD-1 cysteine [2]
1 | 599 min |  | C=CC(=O)Nc1cccc(-c2c[nH]c3ncc(NC(=O)c4cccs4)cc23)c1 [Compound 12c, N-(3-(3-acrylamidophenyl)-1H-pyrrolo[2,3-b]pyridin-5-yl)thiophene-2-carboxamide] | 
2 |  | > 10 µM | C=CC(=O)Nc1cccc(-c2c[nH]c3ncc(C(=O)NC4CCCC4)cc23)c1 [Compound 11a, 3-(3-acrylamidophenyl)-N-cyclopentyl-1H-pyrrolo[2,3-b]pyridine-5-carboxamide] | did not show substantial activity
